Tested on: yeast genes (level of expressed mRNA)
Assay: DNA chip analysis of expressed mRNA of yeast genes after 2 h culture with a toxic chemical substance
Type: cell-based, Saccharomyces cerevisiae S288C
Method: Yeast (Saccharomyces cerevtisiae S288C (α SUC2mal mel gap2 CUP1)) were cultured at 25° C. on YPD medium (yeast extract 1%, polypepton 2%, glucose 2%). One of toxic chemical substances was added to the cell at logarithmic growth phase, and the cell was further cultured for two hours. Cell was cultured without any chemical substance in the same condition, and was used as control. Concentrations of the chemical substances were defined to inhibit the growth of the yeast but not lead to death.
After the completion of cultivation, the culture was centrifuged to collect the cells. To the cells, sodium acetate buffer (50 mM sodium acetate, 10 mM EDTA, 1% SDS) was added, and the mixture was shaken at 65° C. for five minutes, followed by returning to room temperature, and obtaining the supernatant, which procedure was repeated two times. To the supernatant, ½ amount of a solution of phenol/chloroform was added, and the mixture was centrifuged to give a supernatant, which was added with an equal amount of chloroform, and the mixture was centrifuged to give a supernatant. To the supernatant, an equal amount of isopropanol containing 0.3 M sodium acetate was added, and the mixture was allowed to stand at room temperature for 30 minutes, after which the mixture was centrifuged to give a sediment of the whole RNAs. Seventy % ethanol was added to the sediment, and the mixture was again centrifuged to give a sediment, which was then dried and dissolved in water. mRNA was isolated from the whole RNAs as followings. In view of the fact that a poly A chain is attached to the 3′ terminus of mRNA, a polynucleotide having a poly T structure which was immobilized on the surface of latex beads was used to trap the mRNA, and then the mRNA was washed and eluted with spine column (Oligotex-dT30<Super>mRNA Purification Kit, Takara). Reverse transcription of the mRNA was conducted with a reverse transcriptase (Super Script II Reverse Transcriptase; catalogue No. 18064-014, GibcoBRL) using fluorescence-labeled nucleotides to give cDNAs that were introduced with Cy3-dUTP or Cy5-dUTP during the reverse transcription.
The labeled cDNAs were dissolved in TE buffer (10 mM Tris-HCl/1 mM EDTA, pH8.0), and the solution was dropped on the DNA chip containing the whole genes of yeast (DNA Chip Research Inc. Japan) so that the cDNAs were hybridized on the DNA chip at 65° C. for over 12 hours. The fluoresces intensity of the DNA chip was read with a scanner, and the ratio relative to the fluorescence intensity resulting from the absence of chemical substance was estimated as the following, which is shown in Tables 1 to 9: [formula]
In the Tables, “Intensity” indicated in the rightmost column is a value of the level of expressed mRNA of each gene in control cells as divided by the average level of the expressions of the whole genes.

CCCCC[C@H](O)CC(=O)CCc1ccc(O)c(OC)c1 [(13), gingerol]
level of expressed mRNA in the presence of chemical substance/in its absence (gene YGR282C): 1.2
The level of expressed mRNA in the presence of chemical substance/absence: YGR293C (gene YGR293C): 0.7
The level of expressed mRNA in the presence of chemical substance/absence: YHL006C (gene YHL006C): 1.1
The level of expressed mRNA in the presence of chemical substance/absence: YHL021C (gene YHL021C): 2.6
The level of expressed mRNA in the presence of chemical substance/absence: YHL037C (gene YHL037C): 1.0
level of expressed mRNA in the presence of chemical substance/in its absence (gene YHR037W): 1.1
The level of expressed mRNA in the presence of chemical substance/absence: YHR083W (gene YHR083W): 1.1
level of expressed mRNA in the presence of chemical substance/in its absence (gene YHR092C): 0.5
The level of expressed mRNA in the presence of chemical substance/absence: YHR095W (gene YHR095W): 0.7
The level of expressed mRNA in the presence of chemical substance/absence: YHR105W (gene YHR105W): 1.4
The level of expressed mRNA in the presence of chemical substance/absence: YHR134W (gene YHR134W): 1.2
level of expressed mRNA in the presence of chemical substance/in its absence (gene YHR137W): 0.6
The level of expressed mRNA in the presence of chemical substance/absence: YHR180W (gene YHR180W): 1.3
The level of expressed mRNA in the presence of chemical substance/absence: YHR181W (gene YHR181W): 0.7
level of expressed mRNA in the presence of chemical substance/in its absence (gene YHR190W): 1.7
level of expressed mRNA in the presence of chemical substance/in its absence (gene YIL033C): 2.5
The level of expressed mRNA in the presence of chemical substance/absence: YIL108W (gene YIL108W): 1.3
The level of expressed mRNA in the presence of chemical substance/absence: YIL127C (gene YIL127C): 0.4
level of expressed mRNA in the presence of chemical substance/in its absence (gene YIL154C): 1.7
The level of expressed mRNA in the presence of chemical substance/absence: YIL165C (gene YIL165C): 1.5
level of expressed mRNA in the presence of chemical substance/in its absence (gene YIL167W): 1.2
level of expressed mRNA in the presence of chemical substance/in its absence (gene YIR035C): 1.1
The level of expressed mRNA in the presence of chemical substance/absence: YJL017W (gene YJL017W): 1.5
The level of expressed mRNA in the presence of chemical substance/absence: YJL032W (gene YJL032W): 1.4
The level of expressed mRNA in the presence of chemical substance/absence: YJL037W (gene YJL037W): 1.1
The level of expressed mRNA in the presence of chemical substance/absence: YJL049W (gene YJL049W): 0.9
level of expressed mRNA in the presence of chemical substance/in its absence (gene YJL088W): 1.0
The level of expressed mRNA in the presence of chemical substance/absence: YJL097W (gene YJL097W): 0.7
level of expressed mRNA in the presence of chemical substance/in its absence (gene YJL132W): 1.3
level of expressed mRNA in the presence of chemical substance/in its absence (gene YJL196C): 0.6
The level of expressed mRNA in the presence of chemical substance/absence: YJR030C (gene YJR030C): 0.7
The level of expressed mRNA in the presence of chemical substance/absence: YJR044C (gene YJR044C): 2.0
level of expressed mRNA in the presence of chemical substance/in its absence (gene YJR142W): 1.6
level of expressed mRNA in the presence of chemical substance/in its absence (gene YJR148W): 1.1
level of expressed mRNA in the presence of chemical substance/in its absence (gene YJR159W): 2.1
The level of expressed mRNA in the presence of chemical substance/absence: YKL051W (gene YKL051W): 1.2
The level of expressed mRNA in the presence of chemical substance/absence: YKL059C (gene YKL059C): 1.3
level of expressed mRNA in the presence of chemical substance/in its absence (gene YKL067W): 1.7
The level of expressed mRNA in the presence of chemical substance/absence: YKL090W (gene YKL090W): 0.8
The level of expressed mRNA in the presence of chemical substance/absence: YKL094W (gene YKL094W): 1.7
The level of expressed mRNA in the presence of chemical substance/absence: YKL097C (gene YKL097C): 0.9
The level of expressed mRNA in the presence of chemical substance/absence: YKL100C (gene YKL100C): 1.3
level of expressed mRNA in the presence of chemical substance/in its absence (gene YKR039W): 1.3
The level of expressed mRNA in the presence of chemical substance/absence: YKR040C (gene YKR040C): 0.6
The level of expressed mRNA in the presence of chemical substance/absence: YLR097C (gene YLR097C): 1.1
level of expressed mRNA in the presence of chemical substance/in its absence (gene YLR142W): 1.2
level of expressed mRNA in the presence of chemical substance/in its absence (gene YLR180W): 0.6
The level of expressed mRNA in the presence of chemical substance/absence: YLR226W (gene YLR226W): 0.7
level of expressed mRNA in the presence of chemical substance/in its absence (gene YLR273C): 1.7
level of expressed mRNA in the presence of chemical substance/in its absence (gene YLR300W): 0.2
level of expressed mRNA in the presence of chemical substance/in its absence (gene YLR307W): 1.0
The level of expressed mRNA in the presence of chemical substance/absence: YLR338W (gene YLR338W): 1.2
The level of expressed mRNA in the presence of chemical substance/absence: YLR339C (gene YLR339C): 0.1
The level of expressed mRNA in the presence of chemical substance/absence: YLR392C (gene YLR392C): 1.4
The level of expressed mRNA in the presence of chemical substance/absence: YLR415C (gene YLR415C): 1.0
The level of expressed mRNA in the presence of chemical substance/absence: YLR427W (gene YLR427W): 2.5
The level of expressed mRNA in the presence of chemical substance/absence: YML013W (gene YML013W): 1.2
